Assay [1] addresses T1, Herpetosiphon aurantiacus HaXAL1 tyrosine ammonia lyase (Protein GI 159898407), SEQ ID NO: 2, His-tagged (N-terminal tag SEQ ID NO: 11) (Herpetosiphon aurantiacus, UniProt A9AUJ9).
T1 sequence (A9AUJ9 1-552): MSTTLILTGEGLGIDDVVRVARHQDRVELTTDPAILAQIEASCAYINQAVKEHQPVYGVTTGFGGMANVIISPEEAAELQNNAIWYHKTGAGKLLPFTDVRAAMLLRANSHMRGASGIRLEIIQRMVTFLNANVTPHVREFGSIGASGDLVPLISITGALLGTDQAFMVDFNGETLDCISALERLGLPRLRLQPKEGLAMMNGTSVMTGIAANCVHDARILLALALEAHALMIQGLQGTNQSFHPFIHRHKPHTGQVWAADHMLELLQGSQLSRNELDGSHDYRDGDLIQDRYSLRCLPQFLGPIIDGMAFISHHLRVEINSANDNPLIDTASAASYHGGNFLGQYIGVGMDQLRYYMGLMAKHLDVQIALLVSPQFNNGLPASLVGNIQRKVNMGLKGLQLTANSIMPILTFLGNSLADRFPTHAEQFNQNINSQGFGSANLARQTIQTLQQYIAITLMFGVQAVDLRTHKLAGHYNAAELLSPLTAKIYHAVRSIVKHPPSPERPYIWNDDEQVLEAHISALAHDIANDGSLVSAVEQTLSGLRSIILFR
Kind of assay: In vitro kinetics of purified His-tagged HaXAL1 (tyrosine/phenylalanine ammonia lyase activity, absorbance at 315/295 nm). The assay is classed as biochemical. The method, then: The tyrosine ammonia lyase activity may for instance be determined in accordance to the following method: Enzymatic assays are performed in 200 μL volumes in wells in a UV transparent 96-well plate, by following the increase in absorbance at 315 nm (pHCA) using spectrophotometry or HPLC with UV detection. The reaction mixtures contain 2 μg of purified protein and are initiated by adding 1 mM tyrosine or 6 mM after equilibration to 30° C. The enzymatic activity is calculated as U/g, where U is defined as μmol substrate converted per minute. Negative controls contain no purified protein. Kinetic constants Km and vmax are determined from assays containing 1.56 μM to 200 μM tyrosine. See also Kyndt et al. (2002).
Four of the enzymes were further purified by His-tag purification as follows. A DNA linker (5′ phosphorylated oligonucleotides CBJP559 and CBJP560, Table 5) was inserted in place of the sequence between the NdeI and BgIII site in plasmid pCDFDuet-1. This would result in the addition of the amino acids MAHHHHHHENLYFQ (SEQ ID NO: 11) to the N-terminal end of the polypeptides. […]
(§1) Enzymatic assays were performed in 200 μL volumes in wells in a UV transparent 96-well plate, by following the increase in absorbance at 315 nm (pHCA) or 295 nm (CA). […] The enzymatic activity was calculated as U/g, where U is defined as μmol substrate converted per minute.

The target in assay [2] is T2, Saccharothrix espanaensis SeSam8 (Protein GI 433607630), His-tagged (N-terminal tag SEQ ID NO: 11) (Saccharothrix espanaensis, UniProt Q2EYY5).
T2 sequence (Q2EYY5 1-510): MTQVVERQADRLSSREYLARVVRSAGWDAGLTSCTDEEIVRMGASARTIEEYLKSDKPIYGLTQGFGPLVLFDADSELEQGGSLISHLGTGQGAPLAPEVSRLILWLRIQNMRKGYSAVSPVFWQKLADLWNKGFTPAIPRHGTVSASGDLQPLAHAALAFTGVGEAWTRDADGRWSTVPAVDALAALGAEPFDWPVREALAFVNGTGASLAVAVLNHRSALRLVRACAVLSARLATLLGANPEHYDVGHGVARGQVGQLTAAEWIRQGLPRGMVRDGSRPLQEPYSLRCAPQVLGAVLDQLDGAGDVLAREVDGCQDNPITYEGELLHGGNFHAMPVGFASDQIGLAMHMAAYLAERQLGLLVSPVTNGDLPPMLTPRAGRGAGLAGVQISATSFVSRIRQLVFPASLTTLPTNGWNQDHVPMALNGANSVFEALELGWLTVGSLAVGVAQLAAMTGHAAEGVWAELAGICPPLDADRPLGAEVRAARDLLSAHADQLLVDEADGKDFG
Kind of assay: In vitro kinetics of purified His-tagged SeSam8 (tyrosine/phenylalanine ammonia lyase activity, absorbance at 315/295 nm). The assay is classed as biochemical.
Excerpt: Four of the enzymes were further purified by His-tag purification as follows. A DNA linker (5′ phosphorylated oligonucleotides CBJP559 and CBJP560, Table 5) was inserted in place of the sequence between the NdeI and BgIII site in plasmid pCDFDuet-1. This would result in the addition of the amino acids MAHHHHHHENLYFQ (SEQ ID NO: 11) to the N-terminal end of the polypeptides. The resulting plasmid was amplified with primers CBJP575 and CBJP576 (table 5) and the genes were amplified and combined using the Gibson reaction (New England Biolabs). The PCR amplification used the same reverse primers as in example 1, but the forward primers matching the His-tag site of the linker (Table 5). Plasmids carrying the genes (e.g. FjXAL, FIG. 4) were transformed into electrocompetent E. coli BL21(DE3)pLysS cells (Life Technologies) and selected on LB plates containing 50 ug/mL streptomycin.
Strains expressing His-tagged versions of the enzymes were grown in LB media overnight at 37° C. and diluted into fresh LB media with 1 mM IPTG and growth was propagated overnight (approximately 18 h) at 30° C. […]
as §1

The mark [3] stands for this setting: 30° C, 1.56 μM to 200 μM tyrosine or 193 μM to 25 mM phenylalanine.
Setting [4] is: ratio of Kcat/Km for Tyr over Phe.

Each structure is given as a SMILES string.

In the case of `N[C@@H](Cc1ccc(O)cc1)C(=O)O` [Tyr, tyrosine], the figures for the Kcat in assay [1] (setting [3]) and in assay [2] (setting [3]) were 0.0517 s⁻¹ and 0.014 s⁻¹, respectively. The TAL/PAL turned out to be 540 in assay [1] (setting [4]) and 730 in assay [2] (setting [4]).

For the origin of these results see patent publication US11306331B2, “Processes for the production of hydroxycinnamic acids using polypeptides having tyrosine ammonia lyase activity” (CysBio ApS, priority 2014, dated 2022).
